“Also recorded” adds a separate entry of the source.
Key:
[1] = tested on: defensive burying model of active anxiety-like behavior; test: Defensive burying test (Study 1); assay type: in vivo, rat
Text: The defensive burying test was used to assess effects of MPZP on anxiety-like behavior [Treit et al., Pharmacol. Biochem. Behay. (1981) 15:619-626; De Boer et al., Eur. J. Pharmacol. (2003) 463:145-161]. This model has been validated by anxiolytic and anxiogenic compounds, which decrease and increase defensive burying behavior, respectively [Korte et al., Physiol. Behay. (1994) 56:115-120; De Boer et al., Eur. J. Pharmacol. (2003) 463:145-161]. For two consecutive days before defensive burying testing, animals were acclimated to the testing apparatus by placing them for 45 minutes in the testing cage (a polycarbonate rat housing cage with 2 cm of bedding covering the floor and a small hole centered on a long dimension of the cage 1 inch above the bedding to accommodate the shock probe on the subsequent test day). On the day of testing, animals were brought into the anteroom at least 2 hours before testing began. Subjects were subcutaneously pretreated with MPZP (0, 5, 20 mg/kg) in a between-subjects design 1 hour before their test session. For testing, animals were placed individually in the test cage, and a shock probe connected to a Coulbourn precision shocker (model E13-01, Coulbourn Instruments, Allentown, Pa.) delivered one 1.5 mA shock (lasting <1 s) upon contact. As soon as the animal was shocked (verified by a startle response), the shock current was deactivated, and the 10 minute test began. Contact with the shock probe under these conditions results in the rat displacing bedding material with treading-like movements of the forepaws and shoveling movements of the head, often directed toward the shock probe. Latency to the first display of burying behavior and time spent burying (in four 2.5 minute bins throughout the 10 minute test) were assessed [Korte et al., Physiol. Behay. (1994) 56:115-120]. […] The effect of MPZP on defensive burying behavior (latency to first bury and burying time) were analyzed by analysis of variance (ANOVA), in which Dose was a between-subjects factor and Time bin was a repeated measure for duration of burying.

CRF1 receptors = target: T1, CRF1 receptors (Rattus norvegicus, UniProt P35353); test: CRF receptor autoradiography, rat brain sections, CRF1-rich regions; assay type: binding; parameters: from tissue
T1 sequence (P35353 24-415): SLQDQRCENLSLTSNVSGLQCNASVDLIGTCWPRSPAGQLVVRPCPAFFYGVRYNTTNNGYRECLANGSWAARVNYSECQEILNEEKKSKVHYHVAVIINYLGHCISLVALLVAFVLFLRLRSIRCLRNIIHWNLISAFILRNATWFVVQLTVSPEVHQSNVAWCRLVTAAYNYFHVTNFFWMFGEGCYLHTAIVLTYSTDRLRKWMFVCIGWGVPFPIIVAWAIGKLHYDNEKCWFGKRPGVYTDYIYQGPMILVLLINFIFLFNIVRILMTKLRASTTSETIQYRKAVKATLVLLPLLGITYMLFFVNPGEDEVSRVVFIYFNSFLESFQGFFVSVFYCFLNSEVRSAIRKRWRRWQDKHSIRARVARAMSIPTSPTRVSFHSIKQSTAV
Procedure: (§1) For CRF receptor autoradiography, brain tissue was sectioned coronally (20 μm) using a cryostat (−17° C.). Sections were mounted on Superfrost Plus+ charged glass slides (Fisher Scientific, Pittsburgh, Pa.), permitted to dry completely, and stored in airtight boxes at −80° C. until the day of autoradiography. Autoradiography was performed using standard procedures based on the previous characterization of [^125I]Tyr^0-sauvagine [Grigoriadis et al., Mol. Pharmacol. (1996) 50:679-686].
(§2) Slides containing triplicate adjacent brain sections were thawed to room temperature and permitted to dry completely. Each section then was outlined using a PAP pen (Calbiochem, San Diego, Calif.). Sections were incubated in assay buffer (DPBS with 10 mM MgCl2, 2 mM EGTA, 1 tablet/100 ml protease inhibitor, 0.15% bovine serum albumin) for 15 minutes to remove endogenous ligand. Slides then were incubated under one of four conditions: (1) 0.2 nM […] to determine total binding; (2) 0.2 nM radiolabeled sauvagine+1 μM R121919 (below)
to determine non-CRF1 (e.g., CRF2) receptor binding; (3) 0.2 nM radiolabeled sauvagine+3 μM MPZP to determine non-CRF1 (e.g., CRF2) receptor binding using the experimental compound under study; (4) 0.2 nM radiolabeled sauvagine+0.3 μM unlabeled D-Phe-CRF12-41, a subtype-nonspecific CRF receptor antagonist, to determine non-CRF1/CRF2 (e.g., nonspecific binding). […]

CRF2 receptors = test: CRF receptor autoradiography, rat brain sections, CRF2-rich regions; assay type: binding
Procedure: as §1, §2
to determine non-CRF1 (e.g., CRF2) receptor binding; (3) 0.2 nM radiolabeled sauvagine+3 μM MPZP to determine non-CRF1 (e.g., CRF2) receptor binding using the experimental compound under study; (4) 0.2 nM radiolabeled sauvagine+0.3 μM unlabeled D-Phe-CRF12-41, a subtype-nonspecific CRF receptor antagonist, to determine non-CRF1/CRF2 (e.g., nonspecific binding).
After 2 hours incubation at room temperature, unbound radioligand was removed via a brief dip in ice-cold assay buffer, followed by two 5 minute rinses in ice-cold washing buffer (DPBS with 0.01% Triton-X100) and one brief dip in ice-cold distilled, deionized H2O. Slides then were dried at room temperature and exposed to Kodak Biomax MR film for 2 days. Unlabeled peptides (sauvagine, D-Phe-CRF12-41) were generously provided by Dr. Jean Rivier (The Salk Institute, La Jolla, Calif.). Images were captured using a light box and digital camera computer workstation using a MTI CCDC72 digital camera equipped with a 90 mm Tamron macro lens. […]

[2] = tested on: binge drinking of sweetened alcohol; conditions: Ji et al. 2007, in review; cited from earlier work

displacement of [125I]-Tyr0-sauvagine (CRF1-like binding) (CRF1 receptors; cerebral cortex, concentration printed 1 mM): displaces the majority
displacement of [125I]-Tyr0-sauvagine binding from CRF1-rich regions (CRF1 receptors; cortex and basolateral amygdala, 3 μM): displaced most
displacement of [125I]-Tyr0-sauvagine binding from CRF2-rich regions (CRF2 receptors; 3 μM, rat lateral septum, ventromedial hypothalamus, choroid plexus, cerebral arterioles): did not displace
specificity for CRF2 receptors (CRF2 receptors; at up to 1 μM concentrations): no measurable specificity
displacement of [125I]-Tyr0-sauvagine binding (CRF2-like binding) (CRF2 receptors; rat lateral septum or ventromedial hypothalamus, concentration printed 1 mM): does not displace
Compound: COCCN(CCOC)c1cc(C)nc2c(-c3ccc(OC)cc3C)c(C)nn12 [MPZP, N,N-bis(2-methoxyethyl)-3-(4-methoxy-2-methylphenyl)-2,5-dimethyl-pyrazolo[1,5-a]pyrimidin-7-amine]
total duration of defensive burying behavior ([1]; 0, 5, 20 mg/kg s.c., systemic pretreatment): dose-dependently reduced; also recorded: reduced defensive burying time
duration of burying across the 10-minute observation period ([1]; 20 mg/kg s.c., 1 hour before test, vs vehicle): significantly reduced
latency to start burying ([1]; 5 and 20 mg/kg s.c., 1 hour before test, vs vehicle): increased the latency to start burying
nondependent binge drinking of sweetened alcohol [2]: had no effect
